These results are taken from patent US20070088080A1, “Gsk-3 inhibitors isolated from marine organisms” (NEUROPHARMA, S.A., priority 2003, published 2007).

For test [1], the system named is Tau phosphorylation [pS396] in human neuroblastoma SHSY5Y cells. Briefly: Inhibition of tau phosphorylation in SHSY5Y cells, Tau [pS396] sandwich ELISA. Format: cell-based. The settings on record: at 200 μM, 24 h. Here is the method:
1.1.2. Inhibition of Tau Phosphorylation Human neuroblastoma SHSY5Y cells were seeded in 96-well plates (25000 cells/well) in Dulbecco's modified Eagle's medium (DMEM) supplemented with 10% fetal calf serum. One day later, cells were treated with samples for 24 h at 37° C. After treatment, cultures were washed with phosphate-buffered saline and lysed for 30 min at 4° C. in 120 μl of extraction buffer (10 mM Tris-HCl, pH 7.4, 100 mM NaCl, 1 mM EDTA, 2 mM Na3VO4, 1% Triton X-100, 10% glycerol, 0.1% SDS, 0.5% Sodium deo.ycholate, 1 mM PMSF and a protease inhibitor cocktail.
The quantitative definition of phosphorylated human Tau was made taking 40 μl of the cell lysate and using a phosphorylation-specific antibody against Tau [pS396] in a sandwich ELISA. Tau phosphorylation was estimated by measuring of absorbance at 450 nm in a microtiter plate reader.
(In general: An ELISA detects its analyte on a solid surface through an enzyme-linked reagent.)

Test [2] concerns the target Recombinant human glycogen synthase kinase 3β (Homo sapiens, UniProt P49841). Briefly: GSK3β inhibition, radiometric kinase assay with GS-2 peptide and 33P-ATP.
Procedure: Recombinant human glycogen synthase kinase 3B was assayed in MOPS 8 mM pH7.3, EDTA 0.2 mM, MgCl. 10 mM and sodium orthovanadate 0.25 mM in the presence of 62.5 μM of Phospho-Glycogen Synthase Peptide-2 (GS-2), 0.5 μCi γ-^33P-ATP and unlabelled ATP at a final concentration of 12.5 μM. The final assay volume was 20 μl. After incubation for 30 minutes at 30° C., 15 μl aliquots were spotted onto P81 phosphocellulose papers. Filters were washed four times for at least 10 minutes each and counted with 1.5 ml of scintillation cocktail in a scintillation counter.

Recombinant human glycogen synthase kinase 3β, sequence (P49841 whole entry): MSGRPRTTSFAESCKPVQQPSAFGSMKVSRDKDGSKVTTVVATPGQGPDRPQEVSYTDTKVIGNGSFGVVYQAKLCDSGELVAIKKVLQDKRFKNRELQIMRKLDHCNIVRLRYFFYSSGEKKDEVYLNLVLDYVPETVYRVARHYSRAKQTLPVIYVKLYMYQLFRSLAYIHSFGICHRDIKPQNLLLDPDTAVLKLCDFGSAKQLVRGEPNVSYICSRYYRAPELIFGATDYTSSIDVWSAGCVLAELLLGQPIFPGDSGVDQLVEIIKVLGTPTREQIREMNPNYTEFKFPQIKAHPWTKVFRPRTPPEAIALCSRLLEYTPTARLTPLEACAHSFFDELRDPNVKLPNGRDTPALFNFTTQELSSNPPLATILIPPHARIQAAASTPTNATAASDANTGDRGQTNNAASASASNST

Consider `C/C(=C\C=C\C(C)CC/C=C(\C)CC1OC(=O)C(=O)C1=O)CCCc1ccoc1` (stereo not shown) [Tricantin], for which the “inhibition of tau phosphorylation, cellular assay” value in test [1] is given as “significant inhibition”.

One may read the IC50 as the concentration that inhibits the measured activity by half. As to `CC1=C(O)[C@@H](C/C(C)=C/CC[C@H](C)/C=C/C=C(\C)CCCc2ccoc2)OC1=O` [Palinurin], the “inhibition of tau phosphorylation, cellular assay” value in test [1] is recorded as “significant inhibition”. Besides, in test [2], the IC50 was 4.5 µM. The “mechanism of inhibition of GSK3β” value in test [2] (kinetic experiments varying both ATP and inhibitor concentrations, preliminary) is given as “non As-competitive inhibitor”.
